Experimental data published in patent publication US20250282844A1, “METHODS FOR CONTROLLING IMMUNE CELL ACTIVITY” (BIOSCEPTRE (AUST) PTY LTD, priority 2021, published 2025).

System: JeKo-1 cells
Assay: Co-culture of T cells (unmodified or expressing nfP2X7 CAR) with JeKo-1 cells, with or without blocking peptide
Assay type: cell-based
Conditions: FIG. 3
Protocol: More specifically, T cells (either unmodified or expressing nfP2X7 CAR) were cultured with JeKo-1 cells at an ET ratio of 5 to 1. Blocking was performed using peptide variant 2 at 5 μg/mL.
On day 5 of co-culture the cell counts were measured and evaluated for total JeKo-1 cell count. The total number of JeKo-1 cells added in the experiment was 20,000 on day 1 and day 3 of the experiment (therefore the total amount of added cells was 40,000 JeKo-1 per condition).
Addition of the blocking peptide variant 2 at 5 ug/mL reversed this such that after 5 days, 40,000 JeKo-1 cells were present in culture.

Q: For “DFPGHNYTTRNILPGLNITSTFHKTSGSGKGGGGS (E200_extended peptide 17v12 (35 aa) + linker) [peptide variant 2]”, which “total JeKo-1 cell count” value (T cells expressing nfP2X7 CAR, ET 5 to 1, peptide at 5 ug/mL, day 5 of co-culture, 40,000 JeKo-1 added in total) is on record?
A: 40,000 cells

Q: What about the “total JeKo-1 cell count” value (T cells that do not express nfP2X7 CAR (60,000 cells after 5 days without peptide), effect of adding blocking peptide) of the same sequence?
A: not changed
